Experimental data published in US10174065B2, “Antidiabetic enolic glucoside of phenylpyruvic acid” (ZADEC APS, priority 2010, dated 2019).

Experiments:
3T3-L1 adipocytes = test: Glucose uptake in transformed 3T3-L1 adipocytes (colourometric glucose oxidase method); assay type: cell-based; settings: for Glucose conc.: glucose remaining in the media after 3 hour exposure to the cells; for Glucose conc. / Glucose Uptake: media containing 8 mM glucose; for Glucose Uptake: glucose uptake from the media after 3 hour exposure; for % uptake: relative to DMSO vehicle = 100.00, 3 hour glucose uptake; for glucose uptake over a 3 hour culture period: 3T3-L1 adipose cells
Method: 3T3-L1 cells were transformed in culture using modified DMEM differentiation media supplemented with insulin, dexametasone and isobutylmethylxanthine and cultured for 3 days. The transformed 3T3-L1 adipocytes were then cultured for a further 5 days in modified DMEM supplemented with 10% FCS before being exposed to insulin, metformin and compounds of the present invention (see Table 1). Glucose uptake over a three (3) hour period was determined after the 5 days of treatment using a colourometric glucose oxidase method (Biovision Inc, USA).
The glucose concentration column represents the glucose concentration remaining in the media following three (3) hour exposure to the cells. The glucose uptake column represents glucose uptake from the media after a 3 hour exposure. SD represents the standard deviation. The percentage increases calculated from the relevant solvent vehicle and the P=values are reflected in the last two columns respectively.

Chang cells = test: 2-deoxy-[3H]-D-glucose uptake assay; assay type: cell-based; settings: Chang cell cultures, 3 hrs exposure
Method: The glucose uptake of RX-1 and selected analogues after administration of test compounds to Chang cell cultures were determined in an operating protocol for the 2-deoxy-[^3H]-D-glucose. The protocol, which is described in more detail below, has been designed to test for the RX-1 (and RX-1 analogues) mediated glucose uptake. In Table the EC50 values for the uptake for RX-1 and representative analogues is shown.
Stock solutions of the RX-1 analogues supplied in cryo vials (DrugMode) was prepared by diluting the compound with […] sterile tissue culture grade water. This will yield a 5 mM stock solution. If the analogue […] an additional 50 μl methanol will be added (this will be recorded clearly on the log sheet). This will yield a 4 mM stock solution. Stock solutions will be kept on ice at all times and analogues will be stored in 20 μl aliquots at −80 C for subsequent use. Tubes that have been thawed will be clearly marked on the label.
RX-1 (10 μM) Positive Control Solution • To prepare a 10 μM RX-1 solution as positive control. Add 30 μl to 2970 μl modified DMEM media supplemented with 8 mM glucose.
RX-1 Analogue (31.6 μM) Test Solutions • To prepare a 31.6 μM RX-1 analogue test solution. Add 19 μl of the 5 mM to 2981 μl modified DMEM media supplemented with 8 mM glucose. To prepare a 31.6 μM RX-1 analogue test solution from a 4 mM stock solution, add 24 μl to 2976 μl modified DMEM media supplemented with 8 mM glucose.
Cell Seeding in 24-Well Plates • Chang cells are cultured according to procedures described in MRC cell culture SOPs: TC-B2a Thawing of cells and TC-B1a Cell line maintenance—general principles. Make sure cells are in the log phase (i.e. <70% confluence) and less than 20 passages. • Harvest cells using 0.25% (w/v) Trypsin/0.53 mM EDTA solution. • Count cells and resuspend to 30 000 cells/ml (Chang cell seeding density for 24-well plate=30 000 cells/ml) in EMEM (with pyruvate and NEAA, but without L-glutamate (Lonza, USA) containing 10% FBS (Gibco, UK) and pipette 1 ml/well cell suspension to a 24-well plate corresponding to 30 000 cells/well.
• after 3 days of cell growth, aspirate medium • wash cells once with pre-warmed DPBS at 37° C. • add 500 μl of pre-warmed 37° C. DMEM/0.1% BSA (without phenol red, glucose and pyruvate) to serum starve cells to remove residual glucose and FBS • incubate at 37° C. in humidified air and 5% CO2 for 30 min • aspirate DMEM/0.1% BSA (without phenol red, glucose and pyruvate) • Prepare test dilutions as specified in the plate layout (see below) • add 500 μl pre-warmed 37° C. of test dilution per well according to plate layout • incubate at 37° C. in humidified air and 5% CO2 for 3 hrs • remove test medium and wash cells once with DPBS (37° C.) • add 250 μl of test medium containing 0.5 μCi/ml ^3H-2-DOG to each well use (0.5 μl ^3H to 1 ml medium) • Incubate cells at 37° C. in humidified air and 5% CO2 for 15 min • Aspirate medium • To stop the reaction, wash cells twice with ice-cold DPBS • Aspirate DPBS and ensure that wells are as dry as possible • Lyse cells by adding 1 ml of 0.3N NaOH/1% SDS and incubate at 37° C. for at least 45 min • Mix cell lysate thoroughly before subsequent use in LSC and Bradford protein determination

| EC50 (Chang cells) [µM] | Compound | Glucose conc. (3T3-L1 adipocytes) [nM/ul] | Glucose Uptake (3T3-L1 adipocytes) [nM/ul] | % uptake (3T3-L1 adipocytes) [%] | glucose uptake over a 3 hour culture period (3T3-L1 adipocytes) |
| --- | --- | --- | --- | --- | --- |
|  | CN(C)C(=N)N=C(N)N [Metformin, reference compound] | 3.27 | 2.73 | 117.14 |  |
|  | COC(=O)/C(=C/c1ccccc1)O[C@@H]1O[C@H](CO)[C@@H](O)[C@H](O)[C@H]1O [RX-1 acrylate, (Z)-Methyl 3-phenyl-2-((2S,3R,4S,5S,6R)-3,4,5-trihydroxy-6-(hydroxymethyl)tetra hydro-2H-pyran-2-yloxy)acrylate] | 2.82 | 3.16 | 135.53 | significantly increased |
|  | COC(=O)/C(=C/c1ccccc1)O[C@@H]1O[C@H](COC(C)=O)[C@@H](OC(C)=O)[C@H](OC(C)=O)[C@H]1OC(C)=O [RX-1 triacetate, (2R,3R,4S,5R,6S)-2-(Acetoxymethyl)-6-((Z)-3-methoxy-3-oxo-1-phenylprop-1-en-2-yloxy)tetrahydro-2H-pyran-3,4,5-triyl triacetate] | 2.92 | 3.05 | 130.78 | significantly increased |
| 9.35 | O=C(O)/C(=C/c1ccccc1[N+](=O)[O-])O[C@H]1O[C@@H](CO)[C@H](O)[C@@H](O)[C@@H]1O [RX-2, (Z)-3-(2-Nitrophenyl)-2-(((2R,3S,4R,5R,6S)-3,4,5-trihydroxy-6-(hydroxymethyl)tetrahydro-2H-pyran-2-yl)oxy)acrylic acid] |  |  |  |  |
| 80.8 | O=C(O)/C(=C/c1ccccc1F)O[C@H]1O[C@@H](CO)[C@H](O)[C@@H](O)[C@@H]1O [RX-4, (Z)-3-(2-Fluorophenyl)-2-(((2R,3S,4R,5R,6S)-3,4,5-trihydroxy-6-(hydroxymethyl)tetrahydro-2H-pyran-2-yl)oxy)acrylic acid] |  |  |  |  |
| 114 | O=C(O)/C(=C/c1cccc(F)c1)O[C@H]1O[C@@H](CO)[C@@H](O)[C@@H](O)[C@@H]1O [RX-5, (Z)-3-(3-Fluorophenyl)-2-(((2R,3S,4R,5S,6S)-3,4,5-trihydroxy-6-(hydroxymethyl)tetrahydro-2H-pyran-2-yl)oxy)acrylic acid] |  |  |  |  |
| 105 | O=C(O)/C(=C/c1cccc(C(F)(F)F)c1)O[C@H]1O[C@@H](CO)[C@@H](O)[C@@H](O)[C@@H]1O [RX-10, (Z)-3-(3-(Trifluoromethyl)phenyl)-2-(((2R,3S,4R,5S,6S)-3,4,5-trihydroxy-6-(hydroxymethyl)tetrahydro-2H-pyran-2-yl)oxy)acrylic acid] |  |  |  |  |
| 6.99 | O=C(O)/C(=C/c1c(F)cccc1Cl)O[C@H]1O[C@@H](CO)[C@@H](O)[C@@H](O)[C@@H]1O [RX-16, (Z)-3-(2-Chloro-6-fluorophenyl)-2-(((2R,3S,4R,5S,6S)-3,4,5-trihydroxy-6-(hydroxymethyl)tetrahydro-2H-pyran-2-yl)oxy)acrylic acid] |  |  |  |  |
| 9.5 | Cc1cccc(/C=C(\O[C@H]2O[C@@H](CO)[C@@H](O)[C@@H](O)[C@@H]2O)C(=O)O)c1 [RX-18, (Z)-3-(m-Tolyl)-2-(((2R,3S,4R,5S,6S)-3,4,5-trihydroxy-6-(hydroxymethyl)tetrahydro-2H-pyran-2-yl)oxy)acrylic acid] |  |  |  |  |
| 181 | Cc1cccc(/C=C(\O[C@H]2O[C@@H](CO)[C@H](O)[C@@H](O)[C@@H]2O)C(=O)O)c1 [RX-19, (Z)-3-(m-Tolyl)-2-(((2R,3S,4R,5R,6S)-3,4,5-trihydroxy-6-(hydroxymethyl)tetrahydro-2H-pyran-2-yl)oxy)acrylic acid] |  |  |  |  |
| 5.7 | O=C(O)/C(=C/c1cccc(C(F)(F)F)c1)O[C@H]1O[C@@H](CO)[C@H](O)[C@@H](O)[C@@H]1O [RX-20, (Z)-3-(3-(Trifluoromethyl)phenyl)-2-(((2R,3S,4R,5R,6S)-3,4,5-trihydroxy-6-(hydroxymethyl)tetrahydro-2H-pyran-2-yl)oxy)acrylic acid] |  |  |  |  |
| 286 | O=C(O)/C(=C/c1ccccc1Cl)O[C@H]1O[C@@H](CO)[C@@H](O)[C@@H](O)[C@@H]1O [RX-21, (Z)-3-(2-Chlorophenyl)-2-(((2R,3S,4R,5S,6S)-3,4,5-tri hydroxy-6-(hydroxymethyl)tetrahydro-2H-pyran-2-yl)oxy)acrylic acid] |  |  |  |  |
|  | Insulin | 2.86 | 3.13 | 134.03 |  |
